From the supplement of paper PMC11616607

Tests used:
Test in all cases: drug sensitivity score (DSS) from 5-point dose-response viability curve (DSS (area-under-curve based score)); higher = more sensitive (stronger growth inhibition or killing); extreme values may be limits of the assay
Conditions in all cases: exposure time: 72 h; concentration range: 5 concentrations over 10,000-fold range
CAOV3 = system: CAOV3
Procedure, shortened: (§1)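 Each cell line and drug received a drug sensitivity score from Breeze software, where higher means more sensitive. Zero stands for no response. Scores came from CellTiter-Glo viability readings of ovarian cancer and normal ovarian cells, 1,500 per well in 384-well plates, after 3 days at 37°C, 5% CO2 with drugs at five concentrations over a 10,000-fold range.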

COV318 = system: COV318
Procedure, shortened: as §1

COV362 = system: COV362
Procedure, shortened: as §1

HOSE1C = system: HOSE1C
Procedure, shortened: as §1

HOSE2C = system: HOSE2C
Procedure, shortened: as §1

JHOS2 = system: JHOS2
Procedure, shortened: as §1

Kuramochi = system: Kuramochi
Procedure, shortened: as §1

OV90 = system: OV90
Procedure, shortened: as §1

OVCAR4 = system: OVCAR4
Procedure, shortened: as §1

OVCAR5 = system: OVCAR5
Procedure, shortened: as §1

OVCAR8 = system: OVCAR8
Procedure, shortened: as §1

Ovsaho = system: Ovsaho
Procedure, shortened: as §1

Row | Compound | drug sensitivity score (CAOV3) | drug sensitivity score (COV318) | drug sensitivity score (COV362) | drug sensitivity score (HOSE1C) | drug sensitivity score (HOSE2C) | drug sensitivity score (JHOS2) | drug sensitivity score (Kuramochi) | drug sensitivity score (OV90) | drug sensitivity score (OVCAR4) | drug sensitivity score (OVCAR5) | drug sensitivity score (OVCAR8) | drug sensitivity score (Ovsaho)
1 | CN[C@@H]1C[C@H]2O[C@@](C)([C@@H]1OC)n1c3ccccc3c3c4c(c5c6ccccc6n2c5c31)C(=O)N[C@H]4O [UCN-01] | 19.3 | 18.7 | 17.8 | 27.8 | 29.7 | 15.3 | 14.6 | 22.8 | 13.8 | 18.1 | 18.8 | 23.8
2 | CCN1CCN(c2ccc(Nc3cc(N(C)C(=O)Nc4c(Cl)c(OC)cc(OC)c4Cl)ncn3)cc2)CC1 [Infigratinib] | 0 | 0 | 0 | 0 | 0 | 0 | 0 | 0 | 0 | 0 | 0 | 0
3 | COc1cc2ncnc(Nc3ccc(F)c(Cl)c3)c2cc1OCCCN1CCOCC1 [Gefitinib] | 7.2 | 0.5 | 0.3 | 0 | 0.3 | 1.6 | 1.8 | 4 | 1.9 | 5.6 | 3.3 | 3.8
4 | O=c1[nH]cc(F)c(=O)[nH]1 [Fluorouracil] | 2 | 0 | 0 | 2.5 | 0 | 0 | 0.6 | 2.3 | 0 | 2.7 | 2.3 | 2.6
5 | Cc1c2oc3c(C)ccc(C(=O)N[C@@H]4C(=O)N[C@H](C(C)C)C(=O)N5CCC[C@H]5C(=O)N(C)CC(=O)N(C)[C@@H](C(C)C)C(=O)O[C@@H]4C)c3nc-2c(C(=O)N[C@@H]2C(=O)N[C@H](C(C)C)C(=O)N3CCC[C@H]3C(=O)N(C)CC(=O)N(C)[C@@H](C(C)C)C(=O)O[C@@H]2C)c(N)c1=O [Dactinomycin] | 23.4 | 9 | 13.9 | 34.6 | 30.5 | 26.5 | 27.9 | 23.1 | 17.5 | 20.9 | 24.3 | 26.5
6 | CNC(=O)c1cc(Oc2ccc(NC(=O)Nc3ccc(Cl)c(C(F)(F)F)c3)c(F)c2)ccn1 [Regorafenib] | 2 | 0.6 | 0.6 | 1.6 | 2.7 | 1.3 | 1.2 | 7.9 | 1.6 | 4.4 | 4.1 | 2
7 | COc1cc([C@@H]2c3cc4c(cc3[C@@H](O[C@@H]3O[C@@H]5CO[C@@H](C)O[C@H]5[C@H](O)[C@H]3O)[C@H]3COC(=O)[C@H]23)OCO4)cc(OC)c1O [Etoposide] | 9.2 | 1.7 | 0.1 | 6.5 | 10.1 | 4.5 | 1.8 | 6.1 | 0 | 4.1 | 8.6 | 7
8 | Cc1cc2c(C(=O)NC[C@H](C)c3ccccc3)c(O)c(O)cc2c(O)c1-c1c(C)cc2c(C(=O)NC[C@H](C)c3ccccc3)c(O)c(O)cc2c1O [Sabutoclax] | 15.4 | 8.8 | 9 | 18 | 16.1 | 8.1 | 6.7 | 11.2 | 8.3 | 10.8 | 15.9 | 8.2
9 | CC[C@]1(O)C[C@H]2CN(CCc3c([nH]c4ccccc34)[C@@](C(=O)OC)(c3cc4c(cc3OC)N(C=O)[C@H]3[C@@](O)(C(=O)OC)[C@H](OC(C)=O)[C@]5(CC)C=CCN6CC[C@]43[C@@H]65)C2)C1 [Vincristine] | 21.3 | 1.9 | 3.3 | 16.3 | 17.7 | 2.7 | 3.1 | 16.9 | 6.6 | 4.5 | 8.9 | 5.9
10 | Nc1cc(COc2c(Cl)cc(C[C@H](N)C(=O)O)cc2Cl)c2oc(-c3ccccc3)nc2c1 [JPH203] | 0 | 0 | 0 | 0 | 0 | 0 | 0 | 0 | 0.2 | 7.5 | 0 | 0
11 | NS(=O)(=O)OC[C@@H]1C[C@@H](n2ccc3c(N[C@H]4CCc5ccccc54)ncnc32)C[C@@H]1O [Pevonedistat] | 25.6 | 3.5 | 8.7 | 17.2 | 22.6 | 15 | 7.8 | 16.2 | 2.6 | 6.3 | 16.3 | 6.1
12 | O=c1[nH]c(C2CCCN2)nc2c1oc1ccc(Cl)cc12 (stereo not drawn) | 3.5 | 0 | 0 | 2.6 | 0.9 | 0 | 0 | 0.2 | 0 | 4 | 0 | 0
13 | CN(C)Cc1ccc(S(=O)(=O)n2ccc(/C=C/C(=O)NO)c2)cc1 [Resminostat] | 8.2 | 4.8 | 2.9 | 19.3 | 12 | 5.3 | 5.8 | 9.7 | 3.2 | 12.3 | 11.8 | 3.6
14 | Cc1cnc(NC(=O)Nc2cc(Br)c(C)cc2OC[C@@H]2CNCCO2)cn1 [Rabusertib] | 0.1 | 0.2 | 0.2 | 1.8 | 2 | 0 | 0.1 | 1.6 | 1 | 0.1 | 0 | 0
